Test results: patent publication US6455555B1, “Anti-HIV infection agents and method for treating HIV infection” (Kabushiki Kaisha Hayashibara Seibutsu Kagaku Kenkyujo, priority 2001, dated 2002)
“Also recorded” adds a separate entry of the source. Like-named read-outs stand apart in the source and are kept apart here.

What was measured:
[1] = cited from earlier work
[2] = tested on: patient suffering from ARC (HIV infection); assay: Clinical Experiment 1: formulation 1 tablets with active ingredient A given to one ARC patient; format: in vivo, human
Protocol: (§1) The clinical experiments using the agent for anti-HIV infection of the present invention are explained in the following. The clinical experiments described below were conducted in Thailand without informing the patients of the compound names, chemical structures, etc. of the photosensitizing dyes used as the active ingredient.
The agent for anti-HIV infection of the present invention was administered to a patient suffering from ARC. They had been diagnosed with HIV infection five years before and received administration of AZT/ddI/RTV for 14 months.
His bronchial asthma, a symptom of ARC, was also cured.

[3] = tested on: HIV (HTLV-IIIB); assay: microbe, parasite or virus in culture; format: cell-based; details: for suppression of HIV replication (in words): at the tested concentrations (20-500 μM)
Protocol: To examine the effect on HIV infected cell, MT-4 cells (number of cells at the start of culture 1×10^4/well), that underwent anti-HIV assay, were infected with an HIV (HTLV-IIIB, 200 CCID50/well), cultured at 37° C. for 4 days, and determined for the inhibitory effect on HIV replication, according to the method by Pauels, R. et al., in J. Virol. Methods, 16, 171-185 (1987). Suramin was used as a control.

[4] = tested on: patients suffering from ARC or AIDS (HIV infection); assay: Clinical Experiment 2: formulation 1 tablets with active ingredient A given to seven patients with ARC or AIDS; format: in vivo, human
Protocol: as §1
Seven patients suffering from ARC or AIDS were given the agent for anti-HIV infection of the present invention of formulation 1 containing the active ingredient A. Their medical history before treatment was as follows:
Along therewith, their appetite increased, rash, one of the symptoms of ARC, decreased, hemorrhoid was cured, and insomnia was ameliorated.

[5] = after a further 16 weeks, daily dose 1000 μg, following 8 weeks at 500 μg
[6] = 20 μM, MT-4 cells, HTLV-IIIB 200 CCID50/well, 4 days at 37° C.
[7] = 100 μM, MT-4 cells, HTLV-IIIB 200 CCID50/well, 4 days at 37° C.
[8] = 500 μM, MT-4 cells, HTLV-IIIB 200 CCID50/well, 4 days at 37° C.
[9] = 8 weeks, 500 μg/day, one patient per line

SMILES: CCN1C=CC(=CC=C(C=Cc2cc[n+](CC)c3ccccc23)c2cc[n+](CC)c3ccccc23)c2ccccc21.[I-].[I-] [Active ingredient A]
- side effects such as toxic state ([1]; oral administration at 4 g/kg): does not cause any side effects
- other improvement (in words) ([2]; after 8 weeks, daily dose 500 μg): increased appetite and increased pectoral muscle
- body weight ([2]; after 8 weeks, daily dose 500 μg, 55.6 kg before administration): 56.9 kg
- CD4 count ([2]; after 8 weeks, daily dose 500 μg, 121/mm^3 before administration, person): 181 /mm^3
- bronchial asthma, a symptom of ARC ([2]; after a further 16 weeks, daily dose 1000 μg): cured
- CD4 count [2, 5]: 192 /mm^3
- body weight [2, 5]: 57.1 kg
- Inhibition (%) of HIV replication [3, 6]: 1%
- Inhibition (%) of HIV replication [3, 7]: 2%
- Inhibition (%) of HIV replication [3, 8]: 1%
- suppression of HIV replication (in words) ([3]; listed as active ingredients A): no anti-virus activity to suppress reproduction of HIV; also recorded: did not suppress the replication of HIV
- Improvement (Symptoms of ARC etc.) [4, 9]: Increased appetite; also recorded: Amelioration of insomnia; also recorded: Cure of hemorrhoids; also recorded: Decrease of rash
- Side effects [4, 9]: None
- overall clinical effect (in words) ([4]; HIV-infected patients): most of the patients showed an increase in the CD4 count and in the body weight

SMILES: Cc1ccc(C(=O)Nc2ccc(S(=O)(=O)O)c3cc(S(=O)(=O)O)cc(S(=O)(=O)O)c23)cc1NC(=O)c1cccc(NC(=O)Nc2cccc(C(=O)Nc3cc(C(=O)Nc4ccc(S(=O)(=O)O)c5cc(S(=O)(=O)O)cc(S(=O)(=O)O)c45)ccc3C)c2)c1 [Suramin, reference compound]
- inhibition at 0.8 µM ([3]; Human immunodeficiency virus 1, MT4, 96 h, 0.8 μM, MT-4 cells, HTLV-IIIB 200 CCID50/well, 4 days at 37° C., read-out: Inhibition (%) of HIV replication): 2%
- inhibition at 4 µM ([3]; Human immunodeficiency virus 1, MT4, 96 h, 4 μM, MT-4 cells, HTLV-IIIB 200 CCID50/well, 4 days at 37° C., read-out: Inhibition (%) of HIV replication): 10%
- inhibition at 20 µM ([3]; Human immunodeficiency virus 1, MT4, 96 h, 20 μM, MT-4 cells, HTLV-IIIB 200 CCID50/well, 4 days at 37° C., read-out: Inhibition (%) of HIV replication): 100%
- inhibition at 100 µM ([3]; Human immunodeficiency virus 1, MT4, 96 h, 100 μM, MT-4 cells, HTLV-IIIB 200 CCID50/well, 4 days at 37° C., read-out: Inhibition (%) of HIV replication): 100%

SMILES: CCCCCCCN1C(C)=CSC1=CC=C(C=Cc1scc(C)[n+]1CCCCCCC)c1scc(C)[n+]1CCCCCCC.[I-].[I-] [Active ingredient B]
- LD50 ([1]; intraperitoneal administration): 54 mg/kg
- LD50 ([1]; oral administration): 1500 mg/kg
- Inhibition (%) of HIV replication [3, 6]: 2%
- Inhibition (%) of HIV replication [3, 7]: 1%
- Inhibition (%) of HIV replication [3, 8]: 2%
- suppression of HIV replication (in words) [3]: no anti-virus activity to suppress reproduction of HIV; also recorded: did not suppress the replication of HIV
